# In patent US7220780B2, “Naaladase inhibitors for treating retinal disorders and glaucoma” (Guilford Pharmaceuticals Inc., priority 2000, dated 2007):
# Peptide text beside a SMILES is read from it.
# Key:
# NAALADase = NAALADase (Rattus norvegicus, UniProt P70627); conditions: NAAG as substrate of NAALADase; cited from earlier work
# male Brown Norway rats [1] = assay: Experimental rat glaucoma (IOP elevation by hypertonic saline), optic nerve fiber counting; type: in vivo; conditions: 10 mg/kg daily i.p.
# Description: (§1) All experiments complied with the Association for Research in Vision and Ophthalmology Statement for the Use of Animals in Ophthalmic and Vision Research. 82 male Brown Norway rats (Rattus norvegicus), each weighing approximately 250 gm, were treated using procedures approved by the Animal Care Committee of the Johns Hopkins University School of Medicine. The rats were housed with a 12 hour light/12 hour dark cycle and fed ad libitum .
# EXPERIMENTAL GLAUCOMA: Unilateral elevation of IOP was produced in 56 rats by microinjection of hypertonic saline into episcleral veins, following procedures described in Morrison, J. et al., IOVS (March 1998) 39:526-531. Beginning on the day of IOP elevation, the rats were treated daily with intraperitoneal injections of either a vehicle (23 rats with 50 mM HEPES-buffered saline) or a NAALADase inhibitor (11 rats with 10 mg/kg of 2-[[(2,3,4,5,6-pentafluorobenzyl)hydroxyphosphinyl]-methyl]pentanedioic acid (“Compound A”) and 22 rats with 10 mg/kg of 2-(3-sulfanylpropyl)pentanedioic acid (“Compound B”)). 11 saline treated rats, 11 Compound A treated rats and 11 Compound B treated rats were sacrificed at 8 weeks, and the remaining rats at 12 weeks, after initial IOP elevation.
# (§2) OPTIC NERVE COUNTING: The rats were sacrificed by exsanguination under deep pentobarbital anesthesia. They were perfused through the heart with 2% paraformaldehyde/2% glutaraldehyde in 0.1 M phosphate buffer, pH 7.2, and the eyes with attached optic nerves were removed. A cross-section of the optic nerve from both experimental (glaucoma or transection) and control eyes was removed 1.5 mm posterior to the globe, 1 mm in thickness, and post-fixed in 2% osmium tetroxide in buffer. These were processed into epoxy resin, sectioned at 1 micron and stained with toluidine blue.
# (§3) The area of the optic nerve cross-section was measured by outlining its outer border at 10×magnification on an image analysis system (Universal Imaging Corp., Westchester, Pa.) with Synsys digital camera and Metamorph software. Three area measurements were taken and the mean value was determined. To measure the density and fiber diameter distributions, images were captured with a 100× phase contrast objective from 10 different areas of each nerve. These were edited to eliminate non-neural objects and the size of each axon internal to the myelin sheath (its minimum diameter) and the density of axons/square mm were calculated for each image and nerve. The mean density was multiplied by total nerve area to yield fiber number for each nerve. The total fiber number in glaucoma or transection nerves was compared to the normal, fellow eye of each rat to yield a percent loss value. The number of axons counted among the 10 images was an approximately 20% sample of the 80-90,000 axons in normal rat nerves. The person measuring axon number was masked to the protocol conducted on the nerves.
# BB/W rats = assay: Retinal pathology in diabetic BB/W rats (basement membrane thickness, E/P ratio); type: in vivo, rat; conditions: for BM THICKNESS (nm) ± SD (n = 3) / E/P RATIO (n = 8–10): diabetic rats
# Description: Four (4) groups of rats received daily insulin injections to maintain their glucose levels at about 350 mg/dl. Starting at the onset of hyperglycemia, NAALADase inhibitor 2-(3-sulfanylpropyl)-pentanedioic acid was administered daily for 6 months to one group of BB/W rats at a dose of 10 mg/kg and to a second group of BB/W rats at a dose of 30 mg/kg. A third group of BB/W rats and a fourth group of non-diabetic rats received daily vehicle treatment (50 mM Hepes buffered saline).
# After six (6) months of NAALADase inhibitor or vehicle treatment, the rats were sacrificed and their eyes were removed. From each rat, one eye was processed for elastase digest while the other eye was processed for transmission electron microscopy (TEM) and basement membrane (BM) thickness.
# Retinal digests were prepared using elastase on retinas as described in Layer, N. , Invest Ophthalmol Vis Sci (1993) 34:2097. Eyes were removed from recently killed BB/W rats (n=25) and age-matched transgenic controls (n=10). The retinas (n=35) were fixed at room temperature by immersing the whole eye (slit at limbus) in 4% (w/v) paraformaldehyde in 50 mmol/L Na-K phosphate buffer with 8% sucrose. The fixed retinas were rinsed in deionized water and were incubated for 3 minutes in a 37° C. agitating water bath in 40 units/mL elastase in Na-K phosphate buffer with 150 mmol/L NaCl and 5 mmol/L ethylenediamine tetraacetic acid (EDTA), pH 6.5. The tissues were washed overnight in 100 mmol/L Tris-HCL (pH 8.5) and then transferred to deionized water for removal of the loosened vitreous and digested neural elements by gentle agitation using the sides of closed forceps and the sides and ends of very fine brushes. After all loose tissues were removed, the retinas were incubated once more in fresh enzyme for 3 minutes and then subjected to a second overnight wash at room temperature in Tns-HCl buffer. On the third day, the retinas were again transferred to deionized water for additional removal of digested neural elements. The vascular network that was completely free of nonvascular elements was mounted flat by flotation in Ca^2+ and Mg^2+ free Dulbecco's PBS on siliconized slides (#S1308, Oncor, Gaithersburg, Md.). After air drying in a dust free environment, the mounts of the retinal microvasculature were stained using periodic acid Schiff reaction and hematoxylin counterstaining, as described in Luna, L., ed. Manual of Histologic Staining Methods of the Armed Forces Institute of Pathology (1968) McGraw-Hill, New York, N.Y. The preparations were then examined by light microscopy and photographed.
# The stained and intact retinal whole mounts were coded and subsequent counting was done masked, as described in Cuthbertson, R., Invest Ophthalmol Vis Sci. (1986) 27:1659-1664).
# Ten fields at ×100 magnification were counted for endothelial and pericyte cells using previously described morphologic criteria (see Kuwabara, T., Arch Ophthalmol. (1960) 64:904-911). In every sample, at least 200 cells were counted from the mid zone of the retina. Mean values for endothelial cell/pericyte (E/P) ratios were initially calculated in 3 retinas from each of the four (4) groups of rats.
# Each eye was fixed in 4% glutaraldehyde and dissected free of sclera and choroids, then trimmed and postfixed in 1% osmium tetroxide. After dehydration and embedding, thin sections were stained with uranyl acetate and lead citrate. Initially, EM thickness of retinal capillaries from 3 non-diabetic rats receiving vehicle, 3 diabetic animals receiving 10 mg/kg 2-(3-sulfanylpropyl)-pentanedioic acid, and 3 diabetic rats receiving 30 mg/kg 2-(3-sulfanylpropyl)-pentanedioic acid were compared with 3 diabetic rats receiving a vehicle. At least 10 capillaries per eye from the inner nuclear and plexiform layers were photographed at a magnification of 10,000×. Exact magnification was determined for each set of negatives with a 28,800 line/inch calibration grid. Negatives were enlarged 3×. […]
# male Brown Norway rats [2] = assay: Optic nerve transection in rats, optic nerve fiber counting; type: in vivo, Rattus norvegicus; conditions: for FIBER NUMBER ± SEM / PERCENT DIFFERENCE ± SEM: 10 mg/kg daily i.p.; for PERCENT DIFFERENCE ± SEM: transected vs normal eye
# Description: as §1
# OPTIC NERVE TRANSECTION: The optic nerve was transected unilaterally in 26 rats under intraperitoneal pentobarbital anesthesia. The conjunctiva was opened with scissors and the optic nerve exposed by traction on extraocular muscles. The transection was performed with microscissors 5 mm posterior to the globe, with specific attention to avoidance of injury to major ocular blood vessels. Immediately after transection, the retina was examined ophthalmoscopically to assure that the retinal arterial blood supply was not disrupted. The conjunctiva was closed with absorbable suture and the eye dressed with antibiotic ointment. Beginning on the day of transection, the rats were treated daily with intraperitoneal injections of either a vehicle (9 rats with 50 mM HEPES-buffered saline) or a NAALADase inhibitor (8 rats with 10 mg/kg of Compound A and 9 rats with 10 mg/kg of Compound B). 5 saline treated rats, 3 Compound A treated rats and 4 Compound B treated rats were sacrificed at 2 weeks, and the remaining rats at 4 weeks, after transection.
# as §2, §3
# [3] = 10 mg/kg daily for 6 months, 10 mg/kg
# [4] = 10 mg/kg daily for 6 months, listed as NAALADASE INHIBITOR, 10 mg/kg
# [5] = 30 mg/kg daily for 6 months, 30 mg/kg
# [6] = 30 mg/kg daily for 6 months, listed as NAAALADASE INHIBITOR, 30 mg/kg
# [7] = high dose (30 mg/kg), six months, vs diabetic vehicle
# [8] = low dose (10 mg/kg), six months, vs diabetic vehicle
# [9] = 2 weeks survival after transection
# [10] = 4 weeks survival after transection
# Chain of NAALADase (P70627 whole entry): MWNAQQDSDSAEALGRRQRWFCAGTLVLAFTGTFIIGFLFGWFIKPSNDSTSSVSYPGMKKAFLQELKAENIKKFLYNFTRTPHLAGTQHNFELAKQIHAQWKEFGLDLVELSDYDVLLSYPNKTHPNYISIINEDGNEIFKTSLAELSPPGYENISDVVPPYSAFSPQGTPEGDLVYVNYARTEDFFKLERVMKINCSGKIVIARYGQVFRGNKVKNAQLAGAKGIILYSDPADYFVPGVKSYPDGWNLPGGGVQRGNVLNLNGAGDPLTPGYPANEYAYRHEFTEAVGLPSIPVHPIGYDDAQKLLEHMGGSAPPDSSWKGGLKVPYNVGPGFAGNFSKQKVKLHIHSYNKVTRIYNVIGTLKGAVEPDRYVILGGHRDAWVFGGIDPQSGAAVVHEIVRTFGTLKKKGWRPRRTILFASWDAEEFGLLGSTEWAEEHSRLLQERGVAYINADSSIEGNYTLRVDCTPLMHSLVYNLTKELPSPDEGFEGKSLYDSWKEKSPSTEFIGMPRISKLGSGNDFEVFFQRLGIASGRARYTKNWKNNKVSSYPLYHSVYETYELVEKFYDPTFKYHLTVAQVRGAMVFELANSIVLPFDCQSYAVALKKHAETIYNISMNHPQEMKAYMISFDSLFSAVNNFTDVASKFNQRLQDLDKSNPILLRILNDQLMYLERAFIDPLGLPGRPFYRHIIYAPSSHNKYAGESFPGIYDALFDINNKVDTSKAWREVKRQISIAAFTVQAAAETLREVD
smiles,measurement,setting,value
"CC(=O)N[C@@H](CC(=O)O)C(=O)N[C@@H](CCC(=O)O)C(=O)O [NAAG, N-acetyl-aspartyl-glutamate] (Ac-Asp-Glu-OH)",Km,NAALADase,0.54 µM
"O=C(O)CCC(CCCS)C(=O)O (stereo not drawn) [Compound B, 2-(3-sulfanylpropyl)pentanedioic acid]",FIBER NUMBER ± SEM,male Brown Norway rats [1]; 8 week group,80785 ± 2121
same,PERCENT DIFFERENCE ± SEM,"male Brown Norway rats [1]; 8 week group, fiber number glaucoma vs normal eye, positive = fewer fibers in glaucoma eye",−0.82 ± 2.97%
same,IOP INTEGRAL DIFFERENCE ± SEM,"male Brown Norway rats [1]; 8 week group, glaucoma eye vs normal eye",116 ± 33.2 mm Hg—days
same,FIBER NUMBER,male Brown Norway rats [1]; 12 week group,90504 ± 1718
same,PERCENT DIFFERENCE,"male Brown Norway rats [1]; 12 week group, fiber number glaucoma vs normal eye",−3.21 ± 2.86%
same,IOP INTEGRAL DIFFERENCE,"male Brown Norway rats [1]; 12 week group, glaucoma eye vs normal eye",109 ± 45.2 mm Hg—days
same,BM THICKNESS (nm) ± SD (n = 3),BB/W rats; [3],82.3±4.07 nm
same,E/P RATIO (n = 8–10),BB/W rats; [3],2.4±0.5
same,BM THICKNESS (nm) ± SD (n = 3),BB/W rats; [4],82.3 ± 4.07 nm
same,E/P RATIO (n = 8–10),BB/W rats; [4],2.4 ± 0.5
same,BM THICKNESS (nm) ± SD (n = 3),BB/W rats; [5],71.7±4.07 nm
same,E/P RATIO (n = 8–10),BB/W rats; [5],1.9±0.4
same,BM THICKNESS (nm) ± SD (n = 3),BB/W rats; [6],71.7 ± 4.07 nm
same,E/P RATIO (n = 8–10),BB/W rats; [6],1.9 ± 0.4
same,reduction in BM thickness,BB/W rats; [7],29.0%
same,reduction of E/P ratios,BB/W rats; [7],37%
same,decrease in BM thickness,BB/W rats; [8],18.5%
same,reduction of E/P ratios,BB/W rats; [8],20%
same,remaining axons relative to the saline-treated rats,male Brown Norway rats [2]; 2 weeks after transection,twice
same,FIBER NUMBER ± SEM,male Brown Norway rats [2]; [9],"19,550 ± 5,091"
same,PERCENT DIFFERENCE ± SEM,male Brown Norway rats [2]; [9],75.3 ± 6.6%
same,FIBER NUMBER ± SEM,male Brown Norway rats [2]; [10],"5,162 ± 2,509"
same,PERCENT DIFFERENCE ± SEM,male Brown Norway rats [2]; [10],93.4 ± 3.1%
